From patent publication US5827838A, “Method for the treatment of diseases related with protein isoprenylation” (priority 1994, dated 1998)
Like-named read-outs stand apart in the source and are kept apart here. Blank lines part the entries; values can stand above or below the compound they belong to.

How the values were obtained:
[1] = target: T1, protein;farnesyl transferase (Oryctolagus cuniculus, UniProt G1SFC8+G1T7D9); assay: Inhibition of protein;farnesyl transferase using C-terminal octapeptide pre-p21N-ras coupled to Sepharose beads as substrate; assay type: biochemical, rabbit; parameters: substrate N-ras C-terminal octapeptide on Sepharose beads
[2] = target: T1, protein;farnesyl transferase; assay: Inhibition of farnesylation of H-ras protein (p21ras precursor) by farnesyl:protein transferase in rabbit reticulocyte lysate, [3H]-FPP incorporation; settings: different amounts of compound
Target sequence in this assay (G1T7D9 entry or part of it, one chain of several): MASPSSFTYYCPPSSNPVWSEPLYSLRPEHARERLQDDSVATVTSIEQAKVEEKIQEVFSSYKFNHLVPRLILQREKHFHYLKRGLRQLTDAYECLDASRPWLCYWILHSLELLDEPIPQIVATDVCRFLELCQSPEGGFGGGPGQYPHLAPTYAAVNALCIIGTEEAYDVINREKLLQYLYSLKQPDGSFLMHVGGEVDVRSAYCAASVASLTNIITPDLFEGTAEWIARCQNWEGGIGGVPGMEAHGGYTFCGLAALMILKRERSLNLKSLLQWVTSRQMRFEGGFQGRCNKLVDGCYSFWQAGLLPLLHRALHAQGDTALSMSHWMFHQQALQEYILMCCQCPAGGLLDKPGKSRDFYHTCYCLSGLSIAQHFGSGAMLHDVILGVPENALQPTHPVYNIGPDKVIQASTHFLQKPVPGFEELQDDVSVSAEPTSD

squalene synthase = target: T2, squalene synthase (Rattus norvegicus, UniProt Q02769); assay: Inhibition of squalene synthase in rat liver microsomal preparations; assay type: biochemical; settings: at dosage amounts inhibiting p21ras farnesyl transferase
T2 construct: squalene synthase in rat liver microsomal preparations; from tissue; host or cells: rat liver microsomes
T2 sequence (Q02769 1-416): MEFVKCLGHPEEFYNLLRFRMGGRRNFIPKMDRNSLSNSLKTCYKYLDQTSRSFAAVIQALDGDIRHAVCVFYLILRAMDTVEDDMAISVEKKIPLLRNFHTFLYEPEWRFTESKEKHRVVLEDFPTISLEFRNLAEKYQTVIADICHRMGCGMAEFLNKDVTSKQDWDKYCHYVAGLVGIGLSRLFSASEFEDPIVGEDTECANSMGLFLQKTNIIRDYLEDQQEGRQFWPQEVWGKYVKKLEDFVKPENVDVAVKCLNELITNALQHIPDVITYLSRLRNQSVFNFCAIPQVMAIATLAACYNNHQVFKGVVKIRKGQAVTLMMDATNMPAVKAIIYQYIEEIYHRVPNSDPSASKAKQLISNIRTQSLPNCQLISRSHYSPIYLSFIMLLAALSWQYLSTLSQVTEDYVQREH

Rat-1.H-ras13 cells = assay: Inhibition of cell proliferation of transformed Rat-1.H-ras13 cells (cell count, trypan blue exclusion); assay type: cell-based; settings: 10 days
Experimental: Cells were cultured for 10 days in DMEM supplemented with 10% fetal calf serum in the presence of 0, 25 or 100 μM of compound 3. At day 0, cells were plated in monolayer culture at 5×10^3 cells per well (6 well plates). On day 3 and 7, cells were re-fed with the same medium. On day 10, cells were harvested by trypsinization and counted using a standard hemocytometer chamber. Values are the mean of triplicate countings of duplicate incubations. In these ten days control cells had been proliferated exponentially to 1.94×10^6 ±0.04×10^6 cells per well.

[3] = test system: farnesylation of p21ras in Rat-1.H-ras13 cells; assay type: cell-based, rat cells overexpressing human p21Ha-ras; settings: 24 h
Experimental: It was shown now that compound 3 acts as a protein: farnesyl transferase inhibitors in cultured cells. For this purpose Rat-1.H-ras13 cells, which overexpress human p21^Ha-ras (Downword J. et al., Proc. Natl. Acad. Sci. U.S.A. 1988; 85; 5774-5778), were used. These cells were incubated with [^3 H]-mevalonate and 0, 0.1, 1, 10 and 100 μM of compound 3 for 24 h in DMEM containing 1% human serum albumin and 2.5 μM of simvastatin.
Thereafter cells were lysed in 300 μl PBS supplemented with 1% Triton X-100, 0.5% sodium deoxycholate, and the protease inhibitors phenylmethylsulfonylfluoride (1 mM), leupeptine (50 μg/ml), pepstatin A (50 μg/ml) and trasylol (300 K.I.U./ml), and p21^ras was collected on immobilized monoclonal antibody Y13-259 (Osterop A.P.R.M. et al., J. Biol. Chem. 1992; 267; 14647-14653). After separation by SDS polyacrylamide gel electrophoresis the [^3 H]-labelled polypeptides were visualized by autoradiography.

[4] = read-out: IC50, inhibition of protein;farnesyl transferase; octapeptide pre-p21N-ras on Sepharose beads as substrate

SMILES: CC(C)=CCCC(C)=CCCC(C)=CCC(OCP(=O)(O)O)P(=O)(O)O (stereo not shown) [compound 6, farnesyl(phosphono)methoxymethylphosphonic acid]
IC50 ([1]; read-out: IC50, inhibition of protein;farnesyl transferase; octapeptide pre-p21N-ras on Sepharose beads as substrate; unit μm [sic]): 0.58 ± 0.44 µM

SMILES: CC(C)=CCCC(C)=CCCC(C)=CCCP(=O)(O)OP(=O)(O)O [compound 1, farnesylmethylphosphonophosphate]
IC50 [1, 4]: 0.93 ± 0.23 µM
enzyme activity (farnesyl:protein transferase), result in words [2]: concentration-dependently decreased
inhibition of squalene synthesis at amounts that inhibit p21ras farnesyl transferase, result in words (squalene synthase): without inhibiting squalene synthesis

SMILES: CC(C)=CCCC(C)=CCCC(C)=CCP(=O)(O)OP(=O)(O)O [compound 3, farnesylphosphonophosphate]
IC50 [1, 4]: 0.34 ± 0.05 µM
non-viable cells, trypan blue exclusion (Rat-1.H-ras13 cells; 0, 25 or 100 μM): no non-viable cells
inhibition of proliferation of transformed cells, result in words (Rat-1.H-ras13 cells; 25 and 100 μM): concentration-dependently inhibits the proliferation of transformed cells in culture
inhibition at 25 µM (Rat-1.H-ras13 cells; Rattus norvegicus, 240 h, 25 μM, read-out: reduction in cell numbers (of control values)): 32.5%
inhibition at 100 µM (Rat-1.H-ras13 cells; Rattus norvegicus, 240 h, 100 μM, read-out: reduction in cell numbers (of control values)): 49.5%
radioactivity measured in p21ras / farnesylation of ras protein, result in words ([3]; 100 μM): no radioactivity was measured, showing that the farnesylation of the ras protein was totally blocked
IC50 ([3]; DMEM with 1% human serum albumin and 2.5 μM simvastatin, read-out: IC50, inhibition of farnesylation of p21ras in cells): 1 to 10 µM
radioactivity incorporated into p21ras, result in words ([3]; increasing concentrations (0.1, 1, 10, 100 μM)): less radioactivity was incorporated into p21^ras
enzyme activity (farnesyl:protein transferase), result in words [2]: concentration-dependently decreased
inhibition of squalene synthesis at amounts that inhibit p21ras farnesyl transferase, result in words (squalene synthase): without inhibiting squalene synthesis

IC50 ([1]; octapeptide pre-p21N-ras on Sepharose beads as substrate; read-out: IC50, inhibition of protein;farnesyl transferase): 147 ± 37 µM
SMILES: CC(C)=CCCC(C)=CCCC(C)=CCC(CC=C(C)CCC=C(C)CCC=C(C)C)(P(=O)(O)O)P(=O)(O)O [bisfarnesylmethylenebis(phosphonic acid), reference compound]

SMILES: CC(C)=CCCC(C)=CCCC(C)=CCOCP(=O)(O)OP(=O)(O)O [compound 5, farnesyloxymethylphosphono-phosphate]
IC50 [1, 4]: 0.52 ± 0.07 µM
